For eleven compounds, TGI results are on record in PubChem BioAssay (NCI).

Some test systems named below: 786-0 renal; A549 NSCLC; CAKI-1 renal; CCRF-CEM leukemia; HS 578T breast; IGROV1 ovarian; K-562 leukemia; LOX IMVI melanoma; MOLT-4 leukemia; NCI-H23 lung; OVCAR-4 ovarian; SN12C renal; SW-620 colon; EKVX NSCLC.
What all share (assay): NCI anticancer screen, dose series, 48 h

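How tested: cells in 96-well plates exposed to compound for 48 hours at five concentrations. Definition used: TGI = concentration required for complete inhibition of growth.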

In the case of `O=C(CSc1nnc(-c2ccccn2)s1)N/N=C/c1ccccc1`, the TGI in the assay on 786-0 renal, in the assay with A549 NSCLC, in the assay with CAKI-1 renal, in the assay with CCRF-CEM leukemia, in the assay on HS 578T breast and with IGROV1 ovarian was over 100 µM throughout. In addition, the TGI in the assay with K-562 leukemia, in the assay with LOX IMVI melanoma, in the assay with MOLT-4 leukemia, with NCI-H23 lung, in the assay on OVCAR-4 ovarian and with SN12C renal was over 100 µM throughout. The TGI in the assay on SW-620 colon was over 100 µM.
With `CC(=O)OCC1OC(N2C(C)=C(C(C)=O)C(c3ccc(Cl)cc3)C(C#N)=C2S)C(OC(C)=O)C(OC(C)=O)C1OC(C)=O` (configuration not stated), the TGI with 786-0 renal, with A549 NSCLC, in the assay on CAKI-1 renal, in the assay with CCRF-CEM leukemia, with HS 578T breast and in the assay on IGROV1 ovarian was over 100 µM each time. Besides, the TGI is over 100 µM with K-562 leukemia; over 100 µM in the assay on LOX IMVI melanoma; 82.2 µM with MOLT-4 leukemia; over 100 µM in the assay on OVCAR-4 ovarian; over 100 µM in the assay on SN12C renal; over 100 µM with SW-620 colon.
Turning to `CC1(C)C2CCC1(C)C(N/C(Sc1ccccc1)=C(/C(Cl)=C(Cl)Cl)[N+](=O)[O-])C2` (configuration not stated), the TGI in the assay on 786-0 renal was 26.9 µM; with A549 NSCLC it was 45.9 µM; in the assay with CAKI-1 renal, 28.5 µM; in the assay with EKVX NSCLC, 57.8 µM; in the assay on K-562 leukemia, over 100 µM; in the assay with MOLT-4 leukemia, over 100 µM. Further, the TGI came out at 27.6 µM in the assay on NCI-H23 lung, 29.8 µM with OVCAR-4 ovarian, 31 µM with SN12C renal and 24 µM with SW-620 colon.
Take `C=CC[C@]1(/C=N/O)CN(S(=O)(=O)CC[Si](C)(C)C)C[C@H]2CC=CC[C@H]21`: the TGI in the assay with 786-0 renal turned out to be 32.5 µM; in the assay with A549 NSCLC, 30.7 µM; with CAKI-1 renal, 42.8 µM; in the assay with CCRF-CEM leukemia it was 40.7 µM; in the assay with EKVX NSCLC, 58.5 µM; in the assay on IGROV1 ovarian, 34.8 µM. Further, the TGI in the assay on K-562 leukemia was 67.5 µM; with LOX IMVI melanoma, 40.4 µM; in the assay on MOLT-4 leukemia it was 52.2 µM; in the assay with NCI-H23 lung, over 100 µM; with OVCAR-4 ovarian, 34.1 µM; in the assay on SN12C renal it was 30 µM. This compound also came in with a TGI in the assay with SW-620 colon of 34.7 µM.
`O=C1/C(=C\c2ccc([N+](=O)[O-])cc2)N(S(=O)(=O)c2ccccc2)c2ncccc21`: the TGI is 37.1 µM with 786-0 renal; over 100 µM with A549 NSCLC; 20.9 µM in the assay on CAKI-1 renal; over 100 µM in the assay with CCRF-CEM leukemia; 81.3 µM with HS 578T breast; 36.8 µM with IGROV1 ovarian. The TGI in the assay with K-562 leukemia is over 100 µM; in the assay with LOX IMVI melanoma it was 47.5 µM; with MOLT-4 leukemia, 13.5 µM; in the assay with NCI-H23 lung it was 42.1 µM; in the assay with SN12C renal, 50.2 µM; with SW-620 colon it was 34.2 µM.
For `CCC(CC)NC1=C(NC(C)=O)C(=O)c2ccccc2C1=O`, the TGI with 786-0 renal, with A549 NSCLC, in the assay with CCRF-CEM leukemia, with EKVX NSCLC, in the assay on IGROV1 ovarian and in the assay with K-562 leukemia was over 50 µM throughout. Further, the TGI with LOX IMVI melanoma, in the assay with MOLT-4 leukemia, in the assay on NCI-H23 lung, in the assay on OVCAR-4 ovarian, in the assay on SN12C renal and with SW-620 colon was over 50 µM throughout.
For the compound `O=S(Cc1ccccc1)c1nc2ccccc2nc1-c1cccs1` (configuration not stated), the TGI was 23.4 µM in the assay on 786-0 renal; 30.7 µM with A549 NSCLC; over 100 µM in the assay on CCRF-CEM leukemia; 60.6 µM in the assay on EKVX NSCLC; 29.2 µM with IGROV1 ovarian; over 100 µM with K-562 leukemia. In addition, the TGI in the assay on MOLT-4 leukemia was over 100 µM; with NCI-H23 lung, 33.8 µM; in the assay with OVCAR-4 ovarian, 24.6 µM; in the assay on SN12C renal it was 28.1 µM.
Regarding `N[C@@H]1CCN(c2c(F)cc3c(=O)c(C(=O)O)cn4c3c2Oc2c-4ccc3c2ccc2ccccc23)C1`, the TGI was 39.6 µM in the assay on 786-0 renal; over 100 µM with A549 NSCLC; over 100 µM with CAKI-1 renal; over 100 µM with EKVX NSCLC; over 100 µM in the assay with HS 578T breast; 36.3 µM in the assay with IGROV1 ovarian. Also, the TGI with K-562 leukemia, in the assay with LOX IMVI melanoma, in the assay on MOLT-4 leukemia, in the assay with NCI-H23 lung, with SN12C renal and in the assay on SW-620 colon was over 100 µM each time.
In the case of `N#C[S-].[La+3].c1cnc2c(c1)ccc1cccnc12.c1cnc2c(c1)ccc1cccnc12.c1cnc2c(c1)ccc1cccnc12`, the TGI with 786-0 renal was 11.7 µM; in the assay on A549 NSCLC, 10.6 µM; with CAKI-1 renal, 12.7 µM; in the assay with CCRF-CEM leukemia it was 2.58 µM; with EKVX NSCLC, 15.5 µM; with IGROV1 ovarian it was 19.2 µM. Further, the TGI with K-562 leukemia is over 100 µM; in the assay on LOX IMVI melanoma, 13.3 µM; in the assay with MOLT-4 leukemia, 6.55 µM; in the assay with NCI-H23 lung, 22.2 µM; in the assay on OVCAR-4 ovarian, 16.8 µM; with SN12C renal, 16 µM. The compound further displayed a TGI in the assay on SW-620 colon of 27.1 µM.
For the compound `O=C1C2=Cc3ccccc3OC2(O)Oc2cc3ccccc3cc21` (configuration not stated), the TGI with 786-0 renal, in the assay on A549 NSCLC, in the assay on CAKI-1 renal, with CCRF-CEM leukemia, in the assay on EKVX NSCLC and in the assay on IGROV1 ovarian was over 100 µM in each case. For the same compound, the TGI in the assay with K-562 leukemia, in the assay with LOX IMVI melanoma, in the assay on MOLT-4 leukemia, in the assay on NCI-H23 lung, in the assay on OVCAR-4 ovarian and with SN12C renal was over 100 µM in each case. The compound also displayed a TGI with SW-620 colon of over 100 µM.
As for `CN(C)/C=C/C(=CC=[N+](C)C)/C=C/N(C)C`, the TGI with 786-0 renal, in the assay on A549 NSCLC, in the assay with CAKI-1 renal, with CCRF-CEM leukemia, with IGROV1 ovarian and in the assay on K-562 leukemia was over 100 µM in each case. Also, the TGI in the assay with LOX IMVI melanoma, with MOLT-4 leukemia, in the assay on NCI-H23 lung, with OVCAR-4 ovarian, in the assay with SN12C renal and with SW-620 colon was over 100 µM in each case.
